In series [1] the target is T1, hA3AR (Homo sapiens (Human), UniProt P0DMS8). Briefly: FCM competitive binding in whole CHO cells using MRS5449 as tracer. The following applies: whole CHO cells expressing hA3AR; 5 nM MRS5449 tracer; 90 min at 37° C. As to the method:
Total binding was measured in the absence of the competitor.
At the end of each time interval, the medium was removed and cells were washed three times with ice-cold DPBS. After washing, 1 ml 0.2% EDTA solution was added to each well, and cells were incubated at 37° C. for 7 min. Following cell detachment, 1 ml medium was added to each well to neutralize the EDTA. The cell suspensions were transferred to polystyrene round-bottom BD Falcon tubes (BD, Franklin Lakes, N.J.) and centrifuged for 5 min at 23° C. and 400×g. After centrifugation, the supernatant was discarded, and cells were washed with 3 ml PBS and centrifuged again at 23° C. and 400×g for 5 min. After discarding the supernatant, cells were suspended in 0.5 ml PBS and analyzed by FCM.
The intensity of fluorescence emission of each sample was measured by using FCM. […] Samples were maintained in the dark during the analysis to avoid photobleaching. MFIs were obtained in the FL-1 channel in log mode. Ten thousand events were analyzed per sample.
Data analysis was performed with the Prism 5 (GraphPad, San Diego Calif.) software. The mean autofluorescence of CHO cells was measured in the absence of the fluorescent ligand.

In another series the target is hA1 AR (Homo sapiens (Human), UniProt P30542). Briefly: Radioligand membrane binding assay at hA1 AR ([3H]R-PIA). Conditions: Table 3. Here is the method: (§1) For cell cultures used in radioligand binding assays, after harvest and homogenization, the cells were centrifuged at 200×g for 10 min, and the pellet was re-suspended in 50 mM Tris-HCl buffer (pH 7.5), containing 10 mM MgCl2. The suspension was homogenized with an electric homogenizer for 10 s and was then re-centrifuged at 20,000×g for 20 min at 4° C. The resultant membrane pellets were resuspended in buffer in the presence of 3 units/ml adenosine deaminase, and the suspension was stored at −80° C. until the binding experiments. The protein concentration was measured using the Bradford assay. Radioligand membrane binding assays
Chain of hA1 AR (P30542 whole entry): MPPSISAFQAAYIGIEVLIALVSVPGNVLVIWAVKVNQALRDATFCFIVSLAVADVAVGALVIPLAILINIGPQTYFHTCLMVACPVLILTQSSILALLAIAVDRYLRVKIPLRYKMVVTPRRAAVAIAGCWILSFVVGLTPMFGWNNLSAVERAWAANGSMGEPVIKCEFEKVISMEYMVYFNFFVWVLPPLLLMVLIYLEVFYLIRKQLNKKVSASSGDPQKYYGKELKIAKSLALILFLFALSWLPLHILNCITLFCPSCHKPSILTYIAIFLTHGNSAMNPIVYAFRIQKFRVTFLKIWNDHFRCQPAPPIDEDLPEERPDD

For the next series, the target named is hA2AAR (Homo sapiens (Human), UniProt P29274). Briefly: Radioligand membrane binding assay at hA2A AR ([3H]CGS21680). The following applies: Table 3; read-out: A2A Ki. Here is the method:
as §1

The target of series [2] is T1, hA3AR. Briefly: Radioligand membrane binding assay at hA3AR ([125I]I-AB-MECA). Conditions: Table 3; read-out: A3 Ki. As to the method: as §1

What is called Ki is the dissociation constant of the complex between target and ligand, obtained from inhibition or displacement. The melting point is the temperature, or range, at which the solid turns liquid.

Structures are written as SMILES.

T1 sequence (P0DMS8 whole entry): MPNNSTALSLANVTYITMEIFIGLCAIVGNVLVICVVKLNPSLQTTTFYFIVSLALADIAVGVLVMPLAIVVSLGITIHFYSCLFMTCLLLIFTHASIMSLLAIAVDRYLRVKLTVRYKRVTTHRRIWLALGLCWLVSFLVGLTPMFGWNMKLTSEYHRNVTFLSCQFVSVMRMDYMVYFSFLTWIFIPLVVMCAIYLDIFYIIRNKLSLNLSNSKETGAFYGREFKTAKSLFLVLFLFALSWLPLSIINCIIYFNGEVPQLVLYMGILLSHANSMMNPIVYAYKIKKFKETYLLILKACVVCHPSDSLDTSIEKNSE
Chain of hA2AAR (P29274 whole entry): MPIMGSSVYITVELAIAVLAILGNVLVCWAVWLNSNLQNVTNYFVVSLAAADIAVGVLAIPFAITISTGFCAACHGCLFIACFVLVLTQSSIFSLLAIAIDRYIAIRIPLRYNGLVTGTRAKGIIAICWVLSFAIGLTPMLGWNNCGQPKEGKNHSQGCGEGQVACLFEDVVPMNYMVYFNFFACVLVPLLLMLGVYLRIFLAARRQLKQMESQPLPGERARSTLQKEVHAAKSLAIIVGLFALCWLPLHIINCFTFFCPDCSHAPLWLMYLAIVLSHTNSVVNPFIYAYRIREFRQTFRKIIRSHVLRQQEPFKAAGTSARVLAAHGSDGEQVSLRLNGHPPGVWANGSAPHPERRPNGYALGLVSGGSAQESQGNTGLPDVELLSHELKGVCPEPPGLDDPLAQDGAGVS

In turn, `Nc1nc(NCCc2ccc(O)cc2)nc2nc(-c3ccco3)nn12` [ZM241385, 4-(2-[7-amino-2-(2-furyl)[1,2,4]triazolo[2,3-a][1,3,5]triazin-5-ylamino]ethyl)phenol] gave a Ki at hA3AR [1] of 300 ± 27 nM.

`Cn1cc2c(nc(NC(=O)Nc3ccc(CC(=O)NCCOCCOCCNC(=O)OC(C)(C)C)cc3)n3nc(-c4ccco4)nc23)n1` [Compound 15, tert-Butyl (2-(2-(2-(2-(4-(3-(2-(furan-2-yl)-8-methyl-8H-pyrazolo[4,3-e][1,2,4]triazolo[1,5-c]pyrimidin-5-yl)ureido)phenyl)acetamido)-ethoxy)ethoxy)ethyl)carbamate] returned a melting point of 157 to 165 °C. Also, the A1 % inhibition at hA1 AR is 7% ± 5%. The Ki on hA2AAR was found to be 456 ± 96 nM. Also, the Ki at hA3AR [2] was determined as 74.8 ± 10.1 nM.

`C#CCCCCC(=O)Nc1nc2nn(C)cc2c2nc(-c3ccco3)nn12` [Compound 38, N-(2-(furan-2-yl)-8-methyl-8H-pyrazolo[4,3-e][1,2,4]triazolo[1,5-c]pyrimidin-5-yl)hept-6-ynamide]: the melting point is 208 to 215 °C (dec.). On hA1 AR (read-out: A1 Ki), the Ki was found to be 891 ± 265 nM. In addition, the Ki at hA2AAR was 151 ± 33 nM. The Ki at hA3AR [2] was found to be 7.26 ± 1.04 nM.

In turn, `Cn1cc2c(nc(NC(=O)Nc3ccc(CC(=O)NCCCNC(=O)OC(C)(C)C)cc3)n3nc(-c4ccco4)nc23)n1` [Compound 12, tert-Butyl (3-(2-(4-(3-(2-(furan-2-yl)-8-methyl-8H-pyrazolo[4,3-e][1,2,4]triazolo[1,5-c]pyrimidin-5-yl)ureido)phenyl)acetamido)propyl)carbamate] came in with a melting point of 198 to 205 °C. In addition, the A1 % inhibition at hA1 AR is on record as 15% ± 5%. Moreover, the Ki on hA2AAR worked out at 150 ± 11 nM. In addition, the Ki at hA3AR [2] is 2.75 ± 0.2 nM.

Take `OC[C@H]1O[C@@H](n2cnc3c(NC4CCCC4)ncnc32)[C@H](O)[C@@H]1O` [CPA, (2R,3R,4S,5R)-2-[6-(cyclopentylamino)purin-9-yl]-5(hydroxymethyl)oxolane-3,4-diol]: affinity on hA3AR [1] was put at a Ki of 1490 ± 230 nM.

The compound `Cn1cc2c(nc(NC(=O)Nc3ccc(CC(=O)NCCOCCOCCN)cc3)n3nc(-c4ccco4)nc23)n1.O=C(O)C(F)(F)F` [Compound 20, 2-(2-(2-(2-(4-(3-(2-(furan-2-yl)-8-methyl-8H-pyrazolo[4,3-e][1,2,4]triazolo[1,5-c]pyrimidin-5-yl)ureido)phenyl)acetamido)ethoxy)ethoxy)ethanamine trifluoroacetate salt] returned a melting point of 152 to 160 °C. Besides, at hA1 AR, the A1 % inhibition is given as 17% ± 3%. On hA2AAR, the Ki stood at 267 ± 61 nM. At hA3AR [2], the Ki was 19.2 ± 3.3 nM.

`Cn1cc2c(nc(NC(=O)Nc3ccc(CC(=O)NCCCOCCOCCOCCCNC(=O)OC(C)(C)C)cc3)n3nc(-c4ccco4)nc23)n1` [Compound 16, tert-Butyl (1-(4-(3-(2-(furan-2-yl)-8-methyl-8H-pyrazolo[4,3-e][1,2,4]triazolo[1,5-c]pyrimidin-5-yl)ureido)phenyl)-2-oxo-7,10,13-trioxa-3-azahexadecan-16-yl)carbamate]: the melting point lay in the range of 151 to 158 °C. Also, on hA1 AR, the A1 % inhibition is 11% ± 5%. On hA2AAR, the Ki is 327 ± 32 nM. The Ki on hA3AR [2] came to 82.4 ± 20.1 nM.

For `Nc1nc2ccc(Cl)cc2c2nc(-c3ccco3)nn12` [Compound 7], on hA3AR [1], the inhibitory constant (Ki) was found to be 16.1 ± 6.2 nM.

Consider `C#CCCCCCC(=O)Nc1nc2nn(C)cc2c2nc(-c3ccco3)nn12` [Compound 39, N-(2-(furan-2-yl)-8-methyl-8H-pyrazolo[4,3-e][1,2,4]triazolo[1,5-c]pyrimidin-5-yl)oct-7-ynamide], for which the melting point was 204 to 208 °C (dec.). Further, the A1 % inhibition at hA1 AR is listed as 62% ± 3%. In addition, at hA2AAR, the Ki worked out at 482 ± 141 nM. For the same compound, the Ki at hA3AR [2] stood at 12.8 nM.

`Cn1cc2c(nc(NC(=O)Nc3ccc(CC(=O)NCCCCNC(=O)OC(C)(C)C)cc3)n3nc(-c4ccco4)nc23)n1` [Compound 13, tert-Butyl (4-(2-(4-(3-(2-(furan-2-yl)-8-methyl-8H-pyrazolo[4,3-e][1,2,4]triazolo[1,5-c]pyrimidin-5-yl)ureido)phenyl)acetamido)butyl)carbamate] returned a melting point of 186 to 193 °C. At hA1 AR, the A1 % inhibition is listed as 2% ± 2%. Also, at hA2AAR, the Ki came out at 304 ± 20 nM. For the same compound, the Ki on hA3AR [2] was determined as 3.46 ± 0.33 nM.

The values are drawn from patent US9227979B2, “Fluorescent antagonists of the A3 adenosine receptor” (The United States of America, as represented by the …, priority 2012, dated 2016).
